The data set relates to Hela-luci cells. Put plainly: cytotoxicity in Hela-luci cells by MTT method. Format: cell-based. The settings on record: 24 hours, siRNA (and cationic polymer where named) at transfection concentration, EGCG dose well above the transfection dose. The method, then: (§1) A method for studying the cytotoxicity of the natural polyphenol EGCG in the present invention comprises steps of: incubating Hela-luci cells in a 96-well plate at a cell density of 10^4 cells/well, removing a medium after incubation for 12 hours, and adding 100 μl fresh medium containing the siRNA whose concentration is the same as transfection concentration and a certain amount of EGCG, where the concentration of EGCG is from low to high (comprising the transfection concentration), and a final concentration is much higher than the transfection concentration; culturing for 24 hours, and measuring cytotoxicity by a MTT method.
as §1, with “polyphenol EGCG and cationic polymer LPEI in the” for “polyphenol EGCG in the”, “the siRNA and LPEI whose concentration” for “the siRNA whose concentration”, “MTT method. […]” for “MTT method.”
A general note: Tetrazolium dyes change colour on reduction, which living cells bring about.

For `O=C(O[C@@H]1Cc2c(O)cc(O)cc2O[C@@H]1c1cc(O)c(O)c(O)c1)c1cc(O)c(O)c(O)c1` [EGCG], the cell viability entry is listed as “more than 90%”.

The record behind these values is patent US11077206B2, “Composition for gene therapy or transfection, and preparation method and use thereof” (SHANGHAI CHANGZHENG HOSPITAL, priority 2017, dated 2021).
